In patent publication US6121279A, “Substituted 6-phenylphenanthridines” (Byk Gulden Lomberg Chemische Fabrik GmbH, priority 1997, dated 2000):

test system: PDE 4; test: Inhibition of PDE 4 activity (method of Bauer and Schwabe, adapted to microtiter plates); type: biochemical; conditions: Table A

Compound	inhibitory concentration as -log IC50 (mol/l), Inhibition of PDE 4 activity
CCOc1cc2c(cc1OC)C(c1ccc(C(=O)Nc3cccnc3)cc1)=NC1CCCCC21 (mixture of isomers) [Compound 6, (+/-)-cis-9-Ethoxy-8-methoxy-6-(4-pyrid-3-ylamidophenyl)-1,2,3,4,4a,10b-hexahydrophenanthridine]	8.66
CCOc1cc2c(cc1OC)C(c1ccc(S(N)(=O)=O)cc1)=N[C@H]1CCCC[C@@H]21 (racemic) [Compound 1, (+-)-cis-9-Ethoxy-8-methoxy-6-(4-sulfamoylphenyl)-1,2,3,4,4a,10b-hexahydrophenanthridine]	8.55
CCOc1cc2c(cc1OC)C(c1ccc(S(=O)(=O)Nc3ccc(C)cc3)cc1)=N[C@H]1CCCC[C@@H]21 (racemic) [Compound 3, (+/-)-cis-9-Ethoxy-8-methoxy-6-(4-p-tolylsulfamoylphenyl)-1,2,3,4,4a,10b-hexahydrophenanthridine]	9.24
COc1cc2c(cc1OC)[C@@H]1CCCC[C@@H]1N=C2c1ccc(S(=O)(=O)Nc2ccc(C)cc2)cc1 (single isomer, unassigned) [Compound 5, (-)-cis-8,9-Dimethoxy-6-(4-p-tolylsulfamoylphenyl)-1,2,3,4,4a,10b-hexahydrophenanthridine]	8.30
CCCN(CCC)S(=O)(=O)c1ccc(C2=N[C@H]3CCCC[C@H]3c3cc(OCC)c(OC)cc32)cc1 (racemic) [Compound 2, (+/-)-cis-9-Ethoxy-8-methoxy-6-(4-dipropylsulfamoylphenyl)-1,2,3,4,4a,10b-hexahydrophenanthridine]	9.25
